Experimental data reported in BindingDB's records for doi:10.1021/ml200206z (2011).

Molecular target: T1, 5-hydroxytryptamine receptor 2C (Homo sapiens, UniProt P28335)
T1 sequence (P28335 whole entry): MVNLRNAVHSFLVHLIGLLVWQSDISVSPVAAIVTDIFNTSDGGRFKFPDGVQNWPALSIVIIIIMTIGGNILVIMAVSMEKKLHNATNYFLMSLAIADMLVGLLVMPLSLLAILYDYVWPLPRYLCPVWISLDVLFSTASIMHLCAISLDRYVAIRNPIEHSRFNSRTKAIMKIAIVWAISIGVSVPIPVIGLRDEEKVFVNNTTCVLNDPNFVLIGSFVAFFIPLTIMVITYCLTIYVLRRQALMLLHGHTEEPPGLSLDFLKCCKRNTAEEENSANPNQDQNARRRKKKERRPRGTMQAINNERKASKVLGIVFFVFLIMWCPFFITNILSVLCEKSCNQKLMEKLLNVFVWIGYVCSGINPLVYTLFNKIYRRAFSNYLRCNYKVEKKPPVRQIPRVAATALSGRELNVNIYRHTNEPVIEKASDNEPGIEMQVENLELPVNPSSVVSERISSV
Assay: Agonist activity at human 5HT2C receptor expressed in HEK293 cells assessed as calcium flux measured every sec for 3 mins by FLIPR assay

Question: With NC[C@H]1C[C@@H]1c1ccccc1OCC1CC1 as the compound, how does the EC50 read?
Answer: 120 nM
